Assay results: patent US20260015358A1, “BICYCLIC DERIVATIVES, COMPOSITIONS AND USES THEREOF” (Danatlas Pharmaceuticals Co., Ltd., priority 2023, published 2026)

Key:
[1] = target: T1, WRN [UniPro: Q14191 (WRN_HUMAN), N500-C946] (Homo sapiens (Human), UniProt Q14191); assay: WRN ATPase assay (ADP-Glo); assay type: biochemical; details: WRN enzymatic activity assay
[2] = target: T1, WRN [UniPro: Q14191 (WRN_HUMAN), N500-C946]; assay: WRN unwinding assay (FORKF DNA, fluorescence); assay type: biochemical; details: Table 14

T1 sequence (Q14191 500-946): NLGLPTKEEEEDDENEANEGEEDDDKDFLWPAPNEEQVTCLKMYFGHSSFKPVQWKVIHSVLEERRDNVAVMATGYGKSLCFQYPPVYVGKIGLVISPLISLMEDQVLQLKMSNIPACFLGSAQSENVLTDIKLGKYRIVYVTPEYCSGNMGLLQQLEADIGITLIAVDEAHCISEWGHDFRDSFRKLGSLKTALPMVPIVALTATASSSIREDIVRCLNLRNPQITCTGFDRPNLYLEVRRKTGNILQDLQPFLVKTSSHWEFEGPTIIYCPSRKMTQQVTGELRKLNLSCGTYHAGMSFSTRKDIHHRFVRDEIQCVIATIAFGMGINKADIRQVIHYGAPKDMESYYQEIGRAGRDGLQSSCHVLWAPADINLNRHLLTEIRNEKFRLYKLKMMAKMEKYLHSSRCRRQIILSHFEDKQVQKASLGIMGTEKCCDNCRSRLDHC

Row | Structure (SMILES) | IC50 [1] | IC50 [2]
1 | CCc1c(N2CCN(C(=O)CNC(=O)c3cn(C)[nH]c3=O)CC2)c(=O)n2nc(C3=CCOCC3)nc2n1CC(=O)Nc1ccc(C(F)(F)F)cc1Cl [Example 283, N-(2-(4-(4-(2-((2-Chloro-4-(trifluoromethyl)phenyl)amino)-2-oxoethyl)-2-(3,6-dihydro-2H-pyran-4-yl)-5-ethyl-7-oxo-4,7-dihydro-[1,2,4]triazolo[1,5-a]pyrimidin-6-yl)piperazin-1-yl)-2-oxoethyl)-1-methyl-3-oxo-2,3-dihydro-1H-pyrazole-4-carboxamide] | 0.1 to 1 µM | < 0.1 µM
2 | CCc1c(N2CCN(C(=O)CNC(=O)c3cnccc3O)CC2)c(=O)n2nc(C3=CCOCC3)nc2n1CC(=O)Nc1ccc(C(F)(F)F)cc1Cl [Example 280, N-(2-(4-(4-(2-((2-Chloro-4-(trifluoromethyl)phenyl)amino)-2-oxoethyl)-2-(3,6-dihydro-2H-pyran-4-yl)-5-ethyl-7-oxo-4,7-dihydro-[1,2,4]triazolo[1,5-a]pyrimidin-6-yl)piperazin-1-yl)-2-oxoethyl)-4-hydroxynicotinamide] | < 0.1 µM | < 0.1 µM
3 | CCc1c(N2CCN(C(=O)c3sc4cccnc4c3N)CC2)c(=O)n2nc(C3=CCOCC3)nc2n1CC(=O)Nc1ccc(C(F)(F)F)cc1Cl [Example 2, 2-(6-(4-(3-Aminothieno[3,2-b]pyridine-2-carbonyl)piperazin-1-yl)-2-(3,6-dihydro-2H-pyran-4-yl)-5-ethyl-7-oxo-[1,2,4]triazolo[1,5-a]pyrimidin-4(7H)-yl)-N-(2-chloro-4-(trifluoromethyl)phenyl)acetamide] | 0.1 to 1 µM | 0.1 to 1 µM
4 | [2H]C([2H])(NC(=O)c1cc(NC)ccc1F)C(=O)N1CCN(c2c(CC)n(CC(=O)Nc3ccc(C(F)(F)F)cc3F)c3nc(C4=CCOCC4)nn3c2=O)CC1 [Example 209, N-(2-(4-(2-(3,6-Dihydro-2H-pyran-4-yl)-5-ethyl-4-(2-((2-fluoro-4-(trifluoromethyl)phenyl)amino)-2-oxoethyl)-7-oxo-4,7-dihydro-[1,2,4]triazolo[1,5-a]pyrimidin-6-yl)piperazin-1-yl)-2-oxoethyl-1,1-d2)-2-fluoro-5-(methylamino)benzamide] | < 0.1 µM | < 0.1 µM
5 | CCc1c(N2CCN(C(=O)c3ccc[nH]c3=O)CC2)c(=O)n2nc(C3=CCOCC3)nc2n1CC(=O)Nc1ccc(C(F)(F)F)cc1Cl [Example 65, N-(2-Chloro-4-(trifluoromethyl)phenyl)-2-(2-(3,6-dihydro-2H-pyran-4-yl)-5-ethyl-7-oxo-6-(4-(2-oxo-1,2-dihydropyridine-3-carbonyl)piperazin-1-yl)-[1,2,4]triazolo[1,5-a]pyrimidin-4(7H)-yl)acetamide] | 0.1 to 1 µM | 0.1 to 1 µM
6 | CCc1c(N2CCN(C(=O)c3ncc4nc(Cl)sc4c3O)CC2)c(=O)n2nc(C3=CCOCC3)nc2n1CC(=O)Nc1ccc(C(F)(F)F)cc1F [Example 199, 2-(6-(4-(2-Chloro-7-hydroxythiazolo[4,5-c]pyridine-6-carbonyl)piperazin-1-yl)-2-(3,6-dihydro-2H-pyran-4-yl)-5-ethyl-7-oxo-[1,2,4]triazolo[1,5-a]pyrimidin-4(7H)-yl)-N-(2-fluoro-4-(trifluoromethyl)phenyl)acetamide] | < 0.1 µM | < 0.1 µM
7 | CCc1c(N2CCN(C(=O)CNC(=O)c3cc(NC)ccc3F)CC2)c(=O)n2nc(N3CCOCC3)nc2n1CC(=O)Nc1ccc(C(F)(F)F)cc1Cl [Example 250] | < 0.1 µM | < 0.1 µM
8 | CCc1c(N2CCN(C(=O)CNC(=O)c3ncco3)CC2)c(=O)n2nc(N3CCOCC3)nc2n1CC(=O)Nc1ccc(C(F)(F)F)cc1Cl [Example 249, N-(2-(4-(4-(2-((2-Chloro-4-(trifluoromethyl)phenyl)amino)-2-oxoethyl)-5-ethyl-2-morpholino-7-oxo-4,7-dihydro-[1,2,4]triazolo[1,5-a]pyrimidin-6-yl)piperazin-1-yl)-2-oxoethyl)oxazole-2-carboxamide] | < 0.1 µM | < 0.1 µM
9 | CCc1c(N2CCN(C(=O)c3n[nH]c(=O)cc3O)CC2)c(=O)n2nc(C3=CCOCC3)nc2n1CC(=O)Nc1ccc(C(F)(F)F)cc1Cl [Example 48, N-(2-Chloro-4-(trifluoromethyl)phenyl)-2-(2-(3,6-dihydro-2H-pyran-4-yl)-5-ethyl-6-(4-(4-hydroxy-6-oxo-1,6-dihydropyridazine-3-carbonyl)piperazin-1-yl)-7-oxo-[1,2,4]triazolo[1,5-a]pyrimidin-4(7H)-yl)acetamide] | < 0.1 µM | < 0.1 µM
10 | CCc1c(N2CCN(C(=O)CNC(=O)c3cncc(O)c3)CC2)c(=O)n2nc(C3=CCOCC3)nc2n1CC(=O)Nc1ccc(C(F)(F)F)cc1Cl [Example 281, N-(2-(4-(4-(2-((2-Chloro-4-(trifluoromethyl)phenyl)amino)-2-oxoethyl)-2-(3,6-dihydro-2H-pyran-4-yl)-5-ethyl-7-oxo-4,7-dihydro-[1,2,4]triazolo[1,5-a]pyrimidin-6-yl)piperazin-1-yl)-2-oxoethyl)-5-hydroxynicotinamide] | < 0.1 µM | < 0.1 µM
11 | CCc1c(N2CCN(C(=O)CNC(=O)c3ccc(F)c(O)c3)CC2)c(=O)n2nc(C3=CCOCC3)nc2n1CC(=O)Nc1ccc(C(F)(F)F)cc1Cl [Example 292, N-(2-(4-(4-(2-((2-Chloro-4-(trifluoromethyl)phenyl)amino)-2-oxoethyl)-2-(3,6-dihydro-2H-pyran-4-yl)-5-ethyl-7-oxo-4,7-dihydro-[1,2,4]triazolo[1,5-a]pyrimidin-6-yl)piperazin-1-yl)-2-oxoethyl)-4-fluoro-3-hydroxybenzamide] | < 0.1 µM | < 0.1 µM
12 | CCc1c(N2CCN(C(=O)c3cnn4cccc4c3O)CC2)c(=O)n2nc(C3=CCOCC3)nc2n1CC(=O)Nc1sc(C)cc1Br [Example 146, N-(3-Bromo-5-methylthiophen-2-yl)-2-(2-(3,6-dihydro-2H-pyran-4-yl)-5-ethyl-6-(4-(4-hydroxypyrrolo[1,2-b]pyridazine-3-carbonyl)piperazin-1-yl)-7-oxo-[1,2,4]triazolo[1,5-a]pyrimidin-4(7H)-yl)acetamide] | 0.1 to 1 µM | 0.1 to 1 µM
13 | CCc1c(N2CCN(C(=O)c3cc4ccn(C)c4cc3O)CC2)c(=O)n2nc(C3=CCOCC3)nc2n1CC(=O)Nc1ccc(C(F)(F)F)cc1Cl [Example 80, N-(2-Chloro-4-(trifluoromethyl)phenyl)-2-(2-(3,6-dihydro-2H-pyran-4-yl)-5-ethyl-6-(4-(6-hydroxy-1-methyl-1H-indole-5-carbonyl)piperazin-1-yl)-7-oxo-[1,2,4]triazolo[1,5-a]pyrimidin-4(7H)-yl)acetamide] | 0.1 to 1 µM | < 0.1 µM
14 | CCc1c(N2CCN(C(=O)CNC(=O)c3ccccc3)CC2)c(=O)n2nc(N3CC4COCC4C3)nc2n1CC(=O)Nc1ccc(C(F)(F)F)cc1Cl (centres unmarked) [Example 233, N-(2-(4-(4-(2-((2-Chloro-4-(trifluoromethyl)phenyl)amino)-2-oxoethyl)-5-ethyl-7-oxo-2-(tetrahydro-1H-furo[3,4-c]pyrrol-5 (3H)-yl)-4,7-dihydro-[1,2,4]triazolo[1,5-a]pyrimidin-6-yl)piperazin-1-yl)-2-oxoethyl)benzamide] | < 0.1 µM | < 0.1 µM
15 | CCc1c(N2CCN(C(=O)c3c[nH][nH]c3=O)CC2)c(=O)n2nc(C3=CCOCC3)nc2n1CC(=O)Nc1ccc(C(F)(F)F)cc1Cl [Example 63, N-(2-Chloro-4-(trifluoromethyl)phenyl)-2-(2-(3,6-dihydro-2H-pyran-4-yl)-5-ethyl-7-oxo-6-(4-(3-oxo-2,3-dihydro-1H-pyrazole-4-carbonyl)piperazin-1-yl)-[1,2,4]triazolo[1,5-a]pyrimidin-4(7H)-yl)acetamide] | < 0.1 µM | < 0.1 µM
16 | CCc1c(N2CCN(C(=O)CNC(=O)c3ccccc3F)CC2)c(=O)n2nc(C3=CCOCC3)nc2n1CC(=O)Nc1ccc(C)s1 [Example 153, N-(2-(4-(2-(3,6-Dihydro-2H-pyran-4-yl)-5-ethyl-4-(2-((5-methylthiophen-2-yl)amino)-2-oxoethyl)-7-oxo-4,7-dihydro-[1,2,4]triazolo[1,5-a]pyrimidin-6-yl)piperazin-1-yl)-2-oxoethyl)-2-fluorobenzamide] | 0.1 to 1 µM | < 0.1 µM
17 | CCc1c(N2CCN(C(=O)CNC(=O)c3ccnc(O)c3)CC2)c(=O)n2nc(C3=CCOCC3)nc2n1CC(=O)Nc1ccc(C(F)(F)F)cc1Cl [Example 279, N-(2-(4-(4-(2-((2-Chloro-4-(trifluoromethyl)phenyl)amino)-2-oxoethyl)-2-(3,6-dihydro-2H-pyran-4-yl)-5-ethyl-7-oxo-4,7-dihydro-[1,2,4]triazolo[1,5-a]pyrimidin-6-yl)piperazin-1-yl)-2-oxoethyl)-2-hydroxyisonicotinamide] | < 0.1 µM | < 0.1 µM
18 | CCc1c(N2CCN(C(=O)CNC(=O)c3ccccc3)CC2)c(=O)n2nc(N3CCc4ncccc43)nc2n1CC(=O)Nc1ccc(C(F)(F)F)cc1Cl [Example 234, N-(2-(4-(4-(2-((2-Chloro-4-(trifluoromethyl)phenyl)amino)-2-oxoethyl)-2-(2,3-dihydro-1H-pyrrolo[3,2-b]pyridin-1-yl)-5-ethyl-7-oxo-4,7-dihydro-[1,2,4]triazolo[1,5-a]pyrimidin-6-yl)piperazin-1-yl)-2-oxoethyl)benzamide] | 0.1 to 1 µM | < 0.1 µM
19 | CCc1c(N2CCN(C(=O)c3cc4c(O)ccnc4o3)CC2)c(=O)n2nc(C3=CCOCC3)nc2n1CC(=O)Nc1ccc(C(F)(F)F)cc1Cl [Example 88, N-(2-Chloro-4-(trifluoromethyl)phenyl)-2-(2-(3,6-dihydro-2H-pyran-4-yl)-5-ethyl-6-(4-(4-hydroxyfuro[2,3-b]pyridine-2-carbonyl)piperazin-1-yl)-7-oxo-[1,2,4]triazolo[1,5-a]pyrimidin-4(7H)-yl)acetamide] | < 0.1 µM | < 0.1 µM
